From patent US6831078B1, “Azetidinecarboxamide derivatives for treating CNS disorders” (Vernalis Research Limited, priority 1998, dated 2004)

Experiments:
[1] = tested on: 3-MPA-Induced Seizures; assay: Antagonism of 3-MPA-induced seizures; format: in vivo; conditions: mg/kg i.v. of 3-MPA required to evoke a seizure response; test drug 30 mg/kg p.o. 60 min before 3-MPA; male T/O mice
Description: Several animal seizure models are available for the screening and characterisation of anticonvulsant (antiepileptic) drugs, Most models employ a chemical convulsant to induce seizures and the anticonvulsant potencies of novel compounds are measured in terms of their ability to increase the dose of convulsant required to induce a seizure response (or to prolong the latency to seizure onset following a bolus dose of the convulsant). Most chemical convulsants work by blocking the neurotran […] function of gamma-aminobutyric acid (GABA), the predominant inhibitory neurotransmitter in the mammalian brain. This can be achieved by blocking the postsynaptic action of GABA using pentylenetetrazol or bicuculline, or via a presynaptic action using a GABA synthesis inhibitor to decrease GABA release into the synapse. […] Male albino […] (obtained from Tuck) weighing 28-40 g were used in these studies. […] Immediately following 3-MPA administration, each mouse was placed individually into a cage for observation. The seizure response of each animal was scored quantally as present or absent (response or non-response) during the 5 min period immediately following 3-MPA administration. A seizure response was defined as the onset of the initial clonic phase of the seizure (abrupt loss of righting reflex accompanied by vocalisation). The seizure threshold (in terms of mg/kg i.v. of 3-MPA required to evoke a seizure response) was determined in each treatment group by a sequential up/down method followed by modified probit analysis of the quantal data. […] In these studies, 3-MPA was obtained from Sigma. […] Drugs were administered in a dose volume of 10 ml/kg body weight.

[2] = tested on: elevated zero-maze model of anxiety; conditions: dose of 100 mg/Kg; orally by gavage 1 hour prior to zero-maze testing
Description: Male Sprague-Dawley rats (Charles River) weighing 300-450 gm are used. Animals are group-housed (5 per cage; cage size: 40×40×20 cm) in a temperature-controlled environment (20±2° C.), under a 12 h light-dark cycle (lights on: 08:00 hours). Food and water are made freely available. Four hours prior to testing, animals are transferred to clean cages and moved to the testing room in order to habituate to the testing environment.
The maze is comprised of a black Perspex annular platform (105 cm diameter, 10 cm width) elevated to 65 cm above ground level, divided equally into four quadrants. Two opposite quadrants are enclosed by clear red Perspex walls (27 cm high) on both the inner and outer edges of the platform, while the remaining two opposite quadrants are surrounded only by a Perspex “lip” (1 cm high) which serves as a tactile guide to animals on these open areas. […]
Rats are placed on a closed quadrant and a 5 min test period is recorded on video-tape. […] Animals are scored as being in the open area when all four paws were in an open quadrant, and in the closed area only when all four paws passed over the open/closed divide. […]

Structure (SMILES)	SC = Seizure threshold after treatment with test drug [1]	anxiolytic activity (increase in the frequency of head dips) [2]	melting point
C#CCNC(=O)N1CC(c2ccc(F)cc2)C1 [Example 6, 3-(4-Fluorophenyl)-N-(2-propynyl)azetddine-1-carboxamide]	59.5 mg/kg	effective	–
C#CCNC(=O)N1CC(c2ccc(C(C)(C)C)cc2)C1 [Example 3, 3-(4-tert-Butylphenyl)-N-(2-propynyl)azetidine-1-carboxamide]	21.4 mg/kg	–	141 °C
